Assay results taken from ChEMBL document CHEMBL4680140, “Minor chemical modifications of the aminosteroid derivative RM-581 lead to major impact on its anticancer activity, metabolic stability and aqueous solubility” (Eur J Med Chem, 2020).
In brackets after ≈: the same amount, converted by molar mass. Activity calls are given as the source filed them. No cut-off for these calls is given here.

Key:
[1] = Solubility of compound in PBS at pH 7.4 at 300 uM after 24 hrs by HPLC-UV analysis; type: physicochemical
[2] = system: LNCaP; assay: Antiproliferative activity against human LNCaP cells assessed as reduction in cell viability after 72 hrs by MTS assay; type: functional, cell-based
[3] = system: Caov-3 cell line; assay: Antiproliferative activity against human Caov-3 cells assessed as reduction in cell viability at 1 to 5 uM after 72 hrs by MTS assay; type: functional, cell-based; conditions: dose 1-5 µM
[4] = system: PANC-1; assay: Antiproliferative activity against human PANC-1 cells assessed as reduction in cell viability after 72 hrs by MTS assay; type: functional, cell-based; conditions: PANC-1, 72 h
[5] = system: SK-OV-3; assay: Antiproliferative activity against human SK-OV-3 cells assessed as reduction in cell viability at 1 to 5 uM after 72 hrs by MTS assay; type: functional, cell-based; conditions: dose 1-5 µM
[6] = system: PC-3; assay: Antiproliferative activity against human PC-3 cells assessed as reduction in cell viability after 72 hrs by MTS assay; type: functional, cell-based; conditions: PC-3, 72 h
[7] = system: LAPC4; assay: Antiproliferative activity against human LAPC4 cells assessed as reduction in cell viability after 72 hrs by MTS assay; type: functional, cell-based; conditions: LAPC4, 72 h
[8] = system: PANC-1; assay: Antiproliferative activity against human PANC-1 cells assessed as reduction in cell viability at 1 to 5 uM after 72 hrs by MTS assay; type: functional, cell-based; conditions: dose 1-5 µM
[9] = system: LAPC4; assay: Antiproliferative activity against human LAPC4 cells assessed as reduction in cell viability at 1 to 5 uM after 72 hrs by MTS assay; type: functional, cell-based; conditions: dose 1-5 µM
[10] = system: MCF7; assay: Antiproliferative activity against human MCF7 cells assessed as reduction in cell viability after 72 hrs by MTS assay; type: functional, cell-based; conditions: MCF7, 72 h
[11] = system: BXPC-3; assay: Antiproliferative activity against human BXPC-3 cells assessed as reduction in cell viability at 1 to 5 uM after 72 hrs by MTS assay; type: functional, cell-based; conditions: dose 1-5 µM
[12] = system: OVCAR-3; assay: Antiproliferative activity against human OVCAR-3 cells assessed as reduction in cell viability after 72 hrs by MTS assay; type: functional, cell-based; conditions: OVCAR-3, 72 h
[13] = system: T47D; assay: Antiproliferative activity against human T47D cells assessed as reduction in cell viability after 72 hrs by MTS assay; type: functional, cell-based
[14] = Stability in human liver s9 fraction assessed as parent compound remaining at 10 uM after 1 hr by LC-MS analysis; type: ADME, subcellular; conditions: read-out: Stabilty
[15] = system: T47D; assay: Antiproliferative activity against human T47D cells assessed as reduction in cell viability at 1 to 5 uM after 72 hrs by MTS assay; type: functional, cell-based; conditions: dose 1-5 µM
[16] = system: MCF7; assay: Antiproliferative activity against human MCF7 cells assessed as reduction in cell viability at 1 to 5 uM after 72 hrs by MTS assay; type: functional, cell-based; conditions: dose 1-5 µM
[17] = system: Hs 766; assay: Antiproliferative activity against human Hs 766 cells assessed as reduction in cell viability at 1 to 5 uM after 72 hrs by MTS assay; type: functional, cell-based; conditions: dose 1-5 µM
[18] = system: OVCAR-3; assay: Antiproliferative activity against human OVCAR-3 cells assessed as reduction in cell viability at 1 to 5 uM after 72 hrs by MTS assay; type: functional, cell-based; conditions: dose 1-5 µM
[19] = Solubility of compound in PBS at pH 7.4 at pH 7.4 HPLC analysis; type: physicochemical

Row | SMILES | solubility at 24 h, 300 µM [1] | IC50 [2] | Activity [3] | IC50 [4] | Activity [5] | IC50 [6] | IC50 [7] | Activity [8] | Activity [9] | IC50 [10] | Activity [11] | IC50 [12] | IC50 [13] | remaining at 1 h, 10 µM [14] | Activity [15] | Activity [16] | Activity [17] | Activity [18] | solubility [19]
1 | C#C[C@]1(O)CC[C@H]2[C@@H]3CC[C@H]4C[C@H](O)[C@@H](N5CCN(C(=O)[C@@H]6CCCN6C(=O)c6ccc7ccccc7n6)CC5)C[C@]4(C)[C@H]3CC[C@@]21C | 9 µg/mL (≈ 13.8 µM) | – | – | – | – | – | – | – | – | – | – | – | – | – | – | – | – | – | –
2 | C#C[C@]1(O)CC[C@H]2[C@@H]3CCc4cc(OC)c(N5CCN(C(=O)[C@@H]6CCCN6C(=O)c6ccc7ccccc7n6)CC5)cc4[C@H]3CC[C@@]21C | 2 µg/mL (≈ 3.09 µM) | 1200 nM | Active | 3900 nM | Active | 1600 nM | 600 nM | Active | Active | 2600 nM | Active | 5000 nM | 500 nM | 35% | Active | Active | Active | Active | –
3 | C#C[C@]1(O)CC[C@H]2[C@@H]3CCc4cc(OC)c(CN5CCN(C(=O)[C@@H]6CCCN6C(=O)c6ccc7ccccc7n6)CC5)cc4[C@H]3CC[C@@]21C | – | 1300 nM | Active | 2600 nM | Active | 1700 nM | 700 nM | Active | Active | 2300 nM | Active | 5000 nM | 400 nM | 76% | Active | Active | Active | Active | –
4 | C#C[C@]1(O)CC[C@H]2[C@@H]3CCc4cc(C(C)=O)c(N5CCN(C(=O)[C@@H]6CCCN6C(=O)c6ccc7ccccc7n6)CC5)cc4[C@H]3CC[C@@]21C | – | – | inactive | – | inactive | – | – | inactive | inactive | – | inactive | – | – | 52% | inactive | inactive | inactive | inactive | –
5 | C#C[C@]1(O)CC[C@H]2[C@@H]3CCc4cc(OC)c(C(=O)N5CCN(C(=O)[C@@H]6CCCN6C(=O)c6ccc7ccccc7n6)CC5)cc4[C@H]3CC[C@@]21C | – | 800 nM | Active | 3500 nM | Active | 1700 nM | 500 nM | Active | Active | 2200 nM | Active | 5200 nM | 300 nM | 52% | Active | Active | Active | Active | –
6 | C#Cc1cc2c(cc1N1CCN(C(=O)[C@@H]3CCCN3C(=O)c3ccc4ccccc4n3)CC1)[C@H]1CC[C@@]3(C)[C@@H](CC[C@@]3(O)C#C)[C@@H]1CC2 | – | – | – | – | – | – | – | – | – | – | – | – | – | 52% | – | – | – | – | –
7 | CC(=O)O[C@H]1C(=O)[C@@]2(C)[C@H]([C@H](OC(=O)c3ccccc3)[C@]3(O)C[C@H](OC(=O)[C@H](O)[C@@H](NC(=O)c4ccccc4)c4ccccc4)C(C)=C1C3(C)C)[C@]1(OC(C)=O)CO[C@@H]1C[C@@H]2O | – | – | – | – | – | – | – | – | – | – | – | – | – | – | Active | – | – | – | –
8 | CCc1c2c(nc3ccc(OC(=O)N4CCC(N5CCCCC5)CC4)cc13)-c1cc3c(c(=O)n1C2)COC(=O)[C@]3(O)CC | – | – | – | – | – | – | – | – | – | – | – | – | – | – | Active | – | – | – | –
9 | Nc1ccn([C@@H]2O[C@H](CO)[C@@H](O)C2(F)F)c(=O)n1 | – | – | – | – | – | – | – | – | – | – | – | – | – | – | Active | – | – | – | –
10 | O=c1[nH]cc(F)c(=O)[nH]1 | – | – | – | – | – | – | – | – | – | – | – | – | – | – | Active | – | – | – | –
11 | C#CC1(O)CC[C@H]2[C@@H]3CCc4cc(OC(=O)N(C)C)c(N5CCN(C(=O)[C@@H]6CCCN6C(=O)c6ccc7ccccc7n6)CC5)cc4[C@H]3CC[C@@]21C (single isomer, unassigned) | – | – | inactive | – | inactive | – | – | inactive | inactive | – | inactive | – | – | 52% | inactive | inactive | inactive | inactive | –
12 | C#CC1(O)CC[C@H]2[C@@H]3CCc4cc(OC(C)=O)c(N5CCN(C(=O)[C@@H]6CCCN6C(=O)c6ccc7ccccc7n6)CC5)cc4[C@H]3CC[C@@]21C (single isomer, unassigned) | – | 800 nM | Active | 2800 nM | Active | 1400 nM | 500 nM | Active | Active | 1400 nM | Active | 3900 nM | 400 nM | 76% | Active | Active | Active | Active | –
13 | C#CC1(O)CC[C@H]2[C@@H]3CCc4cc(OC(=O)N(CC)CC)c(N5CCN(C(=O)[C@@H]6CCCN6C(=O)c6ccc7ccccc7n6)CC5)cc4[C@H]3CC[C@@]21C (single isomer, unassigned) | – | – | inactive | – | inactive | – | – | inactive | inactive | – | inactive | – | – | 52% | inactive | inactive | inactive | inactive | –
14 | C#CC1(O)CC[C@H]2[C@@H]3CCc4ccc(N5CCN(C(=O)[C@@H]6CCCN6C(=O)c6ccc7ccccc7n6)CC5)cc4[C@H]3CC[C@@]21C (single isomer, unassigned) | – | – | inactive | – | inactive | – | – | inactive | inactive | – | inactive | – | – | 35% | inactive | inactive | inactive | inactive | –
15 | C#CC1(O)CC[C@H]2[C@@H]3CCc4cc(C(C)O)c(N5CCN(C(=O)[C@@H]6CCCN6C(=O)c6ccc7ccccc7n6)CC5)cc4[C@H]3CC[C@@]21C (single isomer, unassigned) | – | – | inactive | – | inactive | – | – | inactive | inactive | – | inactive | – | – | 35% | inactive | inactive | inactive | inactive | –
16 | C#CC1(O)CC[C@H]2[C@@H]3CCc4cc(OS(N)(=O)=O)c(N5CCN(C(=O)[C@@H]6CCCN6C(=O)c6ccc7ccccc7n6)CC5)cc4[C@H]3CC[C@@]21C (single isomer, unassigned) | – | 900 nM | Active | 3000 nM | Active | 1600 nM | 300 nM | Active | Active | 1200 nM | Active | 3100 nM | 200 nM | 35% | Active | Active | Active | Active | –
17 | C#CC1(O)CC[C@H]2[C@@H]3CCc4cc(O)c(N5CCN(C(=O)[C@@H]6CCCN6C(=O)c6ccc7ccccc7n6)CC5)cc4[C@H]3CC[C@@]21C (single isomer, unassigned) | – | 1100 nM | Active | 3100 nM | Active | 1400 nM | 400 nM | Active | Active | 1400 nM | Active | 4400 nM | 500 nM | 35% | Active | Active | Active | Active | –
18 | C#CC1(O)CC[C@H]2[C@@H]3CCc4cc(OP(=O)(O)O)c(N5CCN(C(=O)[C@@H]6CCCN6C(=O)c6ccc7ccccc7n6)CC5)cc4[C@H]3CC[C@@]21C (single isomer, unassigned) | > 720 µg/mL | 600 nM | Active | 2600 nM | Active | 1300 nM | 300 nM | Active | Active | 1500 nM | Active | 4600 nM | 300 nM | 52% | Active | Active | Active | Active | –
19 | CCCSc1ccc2nc(NC(=O)OC)[nH]c2c1 [ALBENDAZOLE] | 0.52 µg/mL (≈ 1.96 µM) | – | – | – | – | – | – | – | – | – | – | – | – | – | – | – | – | – | 0.74 µg/mL (≈ 2.79 µM)
